Data as given in the NIST ThermoML archive (doi:10.1016/j.jct.2019.04.020).
Numbers after ± are expanded uncertainties.

Settings: Liquid, Closed cell (Static) method

| SMILES | vapor or sublimation pressure (293.15 K) | vapor or sublimation pressure (303.15 K) | vapor or sublimation pressure (313.15 K) | vapor or sublimation pressure (323.14 K) |
| --- | --- | --- | --- | --- |
| FCC(F)(F)F [1,1,1,2-tetrafluoroethane] | 571.1 ± 5.1 kPa | 771.4 ± 5.2 kPa | 1018.1 ± 5.3 kPa | 1316.9 ± 5.5 kPa |
| FCF [difluoromethane] | 1473.2 ± 5.7 kPa | 1926.7 ± 6.1 kPa | 2476.3 ± 6.6 kPa | 3142.2 ± 7.2 kPa |
| F/C=C/C(F)(F)F [trans-1,3,3,3-tetrafluoropropene] | 427.4 ± 5.1 kPa | 577.6 ± 5.1 kPa | 765.3 ± 5.2 kPa | 997.8 ± 5.3 kPa |
